Assay results published in patent US20210251934A1, “NOVEL COMPOSITIONS FOR THE TREATMENT OF INFLAMMATORY DISEASES” (SystaMedic Inc., priority 2018, published 2021).

Test system: formalin induced pain responses
Experiment: Formalin Test (formalin induced pain responses, flinches and licks)
Format: in vivo, rat
Details: late phase 20 to 30 min after formalin
Protocol: Evaluation of analgesic and anti-inflammatory effects of compositions of claim 1 (See Hunskaar S and Hole K. (1987) Pain 30(1):103-14.)
In the Formalin Test a 5% solution of formaldehyde is injected subcutaneously to rat paw which produces a biphasic pain response over a test period of 60 minutes: an early phase lasting the first 5 min and a late phase lasting from 20 to 30 min after the injection of formalin. The early phase is due to a direct effect of […] on nociceptors and the late phase seems to be an inflammatory response with inflammatory pain that can be inhibited by anti-inflammatory drugs. For determining effects of compositions on these response phases two measurements were taken with three minutes interval for determining the number of flinches and licks per minute.
The treatments administered consists of (Human equivalent dose)
The above ingredients were suspended in 2.5 ml saline solution to feed by gavage one hour before injection of formalin and pain response was measured for 45 minutes. The data were collected in duplicate and average was taken.

## CC(=O)Nc1ccc(O)cc1 [Paracetamol]
Human equivalent dose 500 mg
  percent inhibition in formalin induced pain responses: 50%
Human equivalent dose 1000 mg
  percent inhibition in formalin induced pain responses: 70%

## CC(=O)Oc1ccccc1C(=O)O [Aspirin]
Human equivalent dose 100 mg
  percent inhibition in formalin induced pain responses: 30%

## C=C(C)[C@@H]1CCC(C)=C[C@H]1c1c(O)cc(CCCCC)cc1O [Cannabidiol (CBD), Cannabidiol]
Human equivalent dose 3 mg
  percent inhibition in formalin induced pain responses: 8%
Human equivalent dose 6.25 mg
  percent inhibition in formalin induced pain responses: 40%
Human equivalent dose 12.5 mg
  percent inhibition in formalin induced pain responses: 40%
Human equivalent dose 25 mg
  percent inhibition in formalin induced pain responses: 90%
Human equivalent dose 50 mg
  percent inhibition in formalin induced pain responses: 90%

## O[C@H]1[C@H](O)[C@@H](O)[C@H](O)[C@@H](O)[C@H]1O [Inositol]
Human equivalent dose 31.5 mg
  percent inhibition in formalin induced pain responses: 12%
Human equivalent dose 60.2 mg
  percent inhibition in formalin induced pain responses: 30%
Human equivalent dose 125 mg
  percent inhibition in formalin induced pain responses: 34%
Human equivalent dose 250 mg
  percent inhibition in formalin induced pain responses: 40%
Human equivalent dose 500 mg
  percent inhibition in formalin induced pain responses: 85%
